Laboratory results taken from the supplement of paper PMC10307832.

Key:
Test in all cases: relative viability (nuclei count vs DMSO), 5 days (fraction); higher = more cells survive
[1] = compound: N=C(N)NC(=N)NCCc1ccccc1 [Phenformin] (anchor plate); conditions: 250 µM
In short: (§1)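 After an overnight hold at 37 °C, lung cancer cell lines in 1536-well plates were pinned with five library-drug doses (not always all listed), each √10 from the next, on vehicle-anchored plates. The cells stayed 5 days without fresh medium, then a one-step fix, permeabilisation and Hoechst stain preceded 4× imaging and MetaXpress nuclear counts. A plate passed only with control CV under 25% and at least one doubling. Viability is the median, over plates, of treated-well nuclei relative to vehicle-well nuclei.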

[2] = compound: C#Cc1cccc(Nc2ncnc3cc(OCCOC)c(OCCOC)cc23)c1 [Erlotinib]
In short: as §1

[3] = compound: O=C(Nc1c[nH]nc1-c1nc2ccc(CN3CCOCC3)cc2[nH]1)NC1CC1 [AT9283]
In short: as §1

| Cell Line | relative viability [1] | relative viability ([2]; 0.02 µM) | relative viability ([2]; 0.2 µM) | relative viability ([2]; 0.6325 µM) | relative viability ([2]; 2 µM) | relative viability ([3]; 0.003 µM) | relative viability ([3]; 0.03 µM) | relative viability ([3]; 0.09487 µM) | relative viability ([3]; 0.3 µM) |
| --- | --- | --- | --- | --- | --- | --- | --- | --- | --- |
| H3255 | 0.386 | 0.946 | 0.709 | 0.514 | 0.225 | 0.998 | 0.95 | 0.714 | 0.177 |
| ABC-1 | 0.25 | 0.827 | 0.881 | 1.01 | 0.81 | 0.831 | 0.301 | 0.3 | 0.235 |
| NCI-H1299 |  | 1.03 | 1.02 | 1.05 | 0.992 | 1.03 | 0.699 | 0.473 | 0.364 |
| NCI-H1993 | 0.497 | 0.965 | 0.748 | 0.714 |  | 0.961 | 0.907 | 0.59 | 0.497 |
| LOU-NH91 | 0.705 | 0.831 | 0.696 | 0.756 | 0.68 | 0.936 | 0.812 | 0.614 | 0.48 |
| LC-2-ad | 0.605 | 0.998 | 1.08 | 1.01 | 0.826 | 0.93 | 0.695 | 0.233 | 0.177 |
| HCC-15 | 0.491 | 1.05 | 0.97 | 1.08 | 0.888 | 0.955 | 0.589 | 0.325 | 0.17 |
| NCI-H650 | 0.464 | 0.827 | 0.974 | 1.06 | 0.806 | 0.835 | 0.883 | 0.633 | 0.204 |
| NCI-H2009 | 0.485 | 1.07 | 0.998 | 1.08 | 0.996 | 1.03 | 0.859 | 0.423 | 0.26 |
| COR-L 105 | 0.551 | 0.931 | 0.515 | 0.4 | 0.334 | 0.983 | 0.4 | 0.334 | 0.334 |
| NCI-H1975 | 0.409 | 0.946 | 0.961 | 1.11 | 0.786 | 0.944 | 1.03 | 0.801 | 0.545 |
| NCI-H1734 | 0.42 | 1.02 | 0.869 | 0.996 | 0.934 | 0.925 | 0.47 | 0.336 | 0.27 |
| NCI-H838 | 0.634 | 1 | 0.896 | 1.14 | 0.883 | 0.969 | 0.517 | 0.313 | 0.253 |
| LCLC-103H | 0.348 | 1.03 | 0.919 | 1 | 0.929 | 0.885 | 1.02 | 0.926 | 0.376 |
| NCI-H2023 | 0.43 | 0.966 | 0.89 | 0.946 | 0.758 | 1.03 | 0.935 | 0.266 | 0.138 |
| A-427 | 0.323 | 1.03 | 0.957 | 1.08 | 1.01 | 0.929 | 0.453 | 0.264 | 0.242 |
| SK-MES-1 | 0.665 | 1.02 | 0.809 | 0.498 | 0.41 | 1.05 | 0.975 | 0.581 | 0.232 |
| NCI-H1755 | 0.626 | 1 | 1.02 | 1.06 | 0.935 | 1.02 | 1.01 | 0.617 | 0.639 |
| LU99A | 0.886 | 0.932 | 0.952 | 0.913 | 0.916 | 0.88 | 0.477 | 0.253 | 0.186 |

| Cell Line | relative viability [1] | relative viability ([2]; 0.02 µM) | relative viability ([2]; 0.2 µM) | relative viability ([2]; 0.6325 µM) | relative viability ([2]; 2 µM) | relative viability ([3]; 0.003 µM) | relative viability ([3]; 0.03 µM) | relative viability ([3]; 0.09487 µM) | relative viability ([3]; 0.3 µM) |
| --- | --- | --- | --- | --- | --- | --- | --- | --- | --- |
| LCLC-97TM1 | 0.391 | 1.07 | 1.14 | 1.23 | 0.972 | 0.841 | 0.469 | 0.159 | 0.112 |
| NCI-H522 | 0.639 | 0.949 | 1.03 | 0.86 | 0.816 | 0.776 | 0.618 | 0.611 | 0.464 |
| NCI-H1666 | 0.571 | 0.973 | 0.928 | 0.855 | 0.728 | 0.975 | 0.847 | 0.66 | 0.535 |
| NCI-H2347 | 0.421 | 1.03 | 1.06 | 0.987 | 0.952 | 1.16 | 1 | 0.597 | 0.514 |
| NCI-H441 | 0.87 |  | 1.1 | 1.05 | 0.848 | 1.09 | 0.856 | 0.37 | 0.337 |
| HCC-78 | 0.681 | 0.99 | 0.963 | 1.08 | 0.745 | 0.847 | 0.794 | 0.332 | 0.262 |
| NCI-H1648 |  | 0.83 | 0.704 | 0.608 | 0.439 | 0.765 | 0.886 | 0.493 | 0.312 |
| EPLC-272H | 0.321 | 1.06 | 0.882 | 1.02 | 0.724 | 0.886 | 0.81 | 0.203 | 0.156 |
| NCI-H647 | 0.554 | 0.878 | 0.829 | 1.08 | 0.912 | 0.902 | 0.434 | 0.167 | 0.11 |
| NCI-H661 | 0.285 | 1 | 0.939 | 1.01 | 0.81 | 0.981 | 0.491 | 0.388 | 0.39 |
| NCI-H23 | 0.749 | 0.959 | 0.757 | 1.16 | 0.979 | 0.895 | 0.71 | 0.432 | 0.306 |
| NCI-H727 | 0.578 | 0.924 | 0.768 | 0.844 | 0.769 | 0.98 | 0.746 | 0.502 | 0.406 |
| A549 | 0.165 | 0.918 | 0.936 | 0.963 | 0.879 | 0.917 | 0.458 | 0.125 | 0.0647 |
| EKVX | 0.231 | 0.962 | 0.587 | 0.43 | 0.215 | 0.915 | 0.858 | 0.629 | 0.324 |
| NCI-H2087 | 0.453 | 1.03 | 1.03 | 1.07 | 0.879 | 0.988 | 0.63 | 0.269 | 0.16 |
| SK-LU-1 | 0.523 | 1.11 | 1.11 | 1.13 | 0.907 | 1.06 | 0.691 | 0.312 | 0.335 |
| NCI-H322M | 0.791 | 0.825 | 0.703 | 0.574 | 0.513 | 0.817 | 0.67 | 0.469 | 0.474 |
| HCC-366 | 0.608 | 1.03 | 1.07 | 0.984 | 1.01 | 0.956 | 0.938 | 0.54 | 0.204 |
